Our source for the mass density values is the NIST ThermoML archive (doi:10.1016/j.tca.2016.11.008).

A short description of the series: xn = mol fraction of the nth substance listed. Particulars: 101.3 kPa, Liquid, Vibrating tube method.

Numbers after ± are expanded uncertainties.

As usually defined, the mass density is the mass of a sample divided by its volume.

For `OCCOCCOCCO` [triethylene glycol] + C[N+](C)(C)CCO.[Cl-], the mass density stood at 1125.4 ± 3.1 kg/m3 (303.15 K, x2 = 0.333); 1118.9 ± 3.1 kg/m3 (313.15 K, x2 = 0.333); 1112.5 ± 3 kg/m3 (323.15 K, x2 = 0.333); 1106.2 ± 3 kg/m3 (333.15 K, x2 = 0.333); 1099.8 ± 3 kg/m3 (343.15 K, x2 = 0.333); 1093.5 ± 3 kg/m3 (353.15 K, x2 = 0.333).

As to `C[N+](C)(C)CCO.[Cl-]` [choline chloride] + O=C[C@H](O)[C@@H](O)[C@H](O)[C@H](O)CO, the mass density by setting is: (303.15 K, x1 = 0.667) 1239.7 ± 3.4 kg/m3; (313.15 K, x1 = 0.667) 1234.6 ± 3.3 kg/m3; (323.15 K, x1 = 0.667) 1229.4 ± 3.3 kg/m3; (333.15 K, x1 = 0.667) 1224.3 ± 3.3 kg/m3; (343.15 K, x1 = 0.667) 1219.2 ± 3.3 kg/m3; (353.15 K, x1 = 0.667) 1214 ± 3.3 kg/m3.
